Assay results reported in patent publication US20260294874A1, “COMPOSITIONS COMPRISING MODULATORS OF RIBONUCLEOPROTEIN GRANULE FORMATION AND DISSOLUTION AND METHODS OF USE THEREOF” (University of Virginia Patent Foundation, priority 2023, published 2026).
Entries after “also recorded” stand apart in the source; their conditions may differ.

System: stress granules (G3BP1 foci) in HeLa cells
Experiment: Immunofluorescence phenotypic screen for stress granules (α-G3BP1) in stressed HeLa cells
Format: cell-based
Details: 2 h; for effect on SGs (in words): 25 μM; for inhibition at 25 µM: read-out: reduction/inhibition of SGs/cell
Method: SuTEx compound treatments. Prior to treatments, cells were washed twice with warm phosphate-buffered saline (PBS) and exchanged with serum-free DMEM (supplemented with 1% L-glutamine) for at least 30 minutes at 37° C. with 5% CO2. Compounds were then added as 1000×DMSO stocks (10 μL for 10 cm dishes and 3 μL for 6-well dishes), plates were mixed gently, and cells were incubated for two hours. All compounds were thoroughly vortexed and sonicated for five minutes prior to addition to ensure complete solvation. For microscopy experiments, cultures were seeded at 150,000 cells in 3 mL of DMEM in 6-well THERMO SCIENTIFIC™ BIOLITE™ brand microwell plates (Catalog No. 12556004; Thermo Fisher Scientific Inc., Waltham, Massachusetts. United States of America). For collection, media was aspirated, and cells were washed once with cold PBS before scraping from plates. Cells were centrifuged at 500×g at 4° C. for 5 minutes and supernatant was removed. Cell pellets were resuspended in cold PBS (1 mL) and centrifuged at 1,400×g at 4° C. for 3 minutes. Supernatant was again removed, and pellets were then snap-frozen in liquid nitrogen and stored at −80° C. until needed.
Immunofluorescence. Immunofluorescence (IF) of HEK293T cells was performed as previously described in Ciancone et al., 2022. HeLa cells were seeded at 9.0×10^4 in a 24-well plate with 12-mm glass coverslips. The next day, the cells were treated with 25 μM SuTEx probe for 2 hours in DMEM medium without FBS. The cells were then treated with 75 μM NaAsO2 for 30 minutes and fixed with 3% paraformaldehyde in PBS for 15 minutes at room temperature (RT) and washed with PBS twice. The fixed cells were permeabilized with PBST (0.1% Triton X-100) for 15 minutes at room temperature and blocked with 5% goat serum in PBST for 30 minutes at RT. The cells were incubated with anti-G3BP1 antibody H-10 (Catalog No. sc-365338 at 1:200 dilution; Santa Cruz Biotechnology, Inc., Dallas, Texas, United States of America) for 2 hours at RT and washed with PBST (0.1% Tween-20) for 5 minutes three times. Next, cells were incubated with goat anti-mouse Alexa 594 antibody (Catalog No. 115-585-003 at 1:800 dilution; Jackson ImmunoResearch, West Grove, Pennsylvania, United States of America) for 30 minutes at RT. The cells were washed twice with PBST, stained with Hoechst 33342 (Catalog No. H3570 at […]; Thermo Fischer Scientific) in PBST for 5 minutes, and washed with PBS twice for 5 minutes. The coverslips were mounted in PROLONG™ Gold AntiFade Mountant (Catalog No. P36930, Thermo Fisher Scientific) and imaged using NIS Elements AR software and a Nikon Eclipse Ti microscope equipped with a ×100 objective and CMOS camera. […] A CellProfiler pipeline was developed to quantify the number of stress granules under each condition. Briefly, cells were recognized as blue^+ (nuclei) red^+ (G3BP1) objects, and the red^+ granules that meet the shape and size threshold were identified and counted. Cells on the border of linages were excluded from the analysis for more accurate quantification.
We used immunofluorescence (IF) detection for phenotypic screening of SuTEx compound activity on stress-induced PB and SG levels in cells (FIG. 1B). PBs were induced through glucose deprivation of HEK293T cells and detected by immunofluorescence with anti-enhancer of mRNA-decapping protein 4 (EDC4) as previously described (Kedersha & Anderson, 2007; Ciancone et al., 2022) (~4 vs 2 PBs/cell in −glucose and +glucose conditions, respectively; FIG. 8). EDC4 is an established PB marker for mammalian cells and is important for PB formation (Kedersha & Anderson, 2007; Luo et al., 2018). SGs were induced in HeLa cells by [COMPOUND LEFT OUT] treatments and detected by fluorescent staining with anti-Ras GTPase-activating protein-binding protein 1 (G3BP1) antibody (75 μM [COMPOUND LEFT OUT], 30 min; FIG. 9). G3BP1 foci have been used in previous IF studies to identify SGs in cells (Kedersha & Anderson, 2007). […]

SMILES	effect on SGs (in words)	inhibition at 25 µM (Homo sapiens)	fold induction at 25 µM (Homo sapiens, read-out: increase in SGs per cell)
COc1ccc(S(=O)(=O)n2cc(C3CCCCC3)nn2)cc1 [HHS-166, 4-Cyclohexyl-1-((4-methoxyphenyl)sulfonyl)-111-1,2,3-triazole]	moderate, but statistically significant inhibitory activity; also recorded: enriched activity; also recorded: inhibits SG assembly; also recorded: inhibited SGs	~50%	
COc1ccc(S(=O)(=O)n2cc(CS(C)(=O)=O)nn2)cc1 [AHL-030, 1-((4-Methoxyphenyl)sulfonyl)-4-((methylsulfonyl)methyl)-1H-1,2,3-triazole]	SG enhancer; also recorded: SG-enhancing; also recorded: enhance SGs; also recorded: increased SGs		~2
CC(C)c1cc(C(C)C)c(S(=O)(=O)n2cc(-c3ccc(C(F)(F)F)cc3)nn2)c(C(C)C)c1 [AHL-003]	block both types of RNP granules; also recorded: inhibited	> 70%	
